Experimental data reported in patent US12421249B2, “Inhibitors of APOL1 and methods of using same” (Vertex Pharmaceuticals Incorporated, priority 2020, dated 2025).
Like-named read-outs stand apart in the source and are kept apart here.

Legend:
[1] = target: T1, APOL1 (Homo sapiens, UniProt O14791); test: Multi-Tox Assay (MultiTox-Fluor Multiplex Cytotoxicity Assay in tet-inducible APOL1 T-REx-HEK293 cells; Table 46 does not say which APOL1 variant G0/G1/G2); assay type: cell-based; settings: APOL1 variant not given; for IC50: IP50 = IC50 for cell proliferation
T1 sequence (O14791 1-398 S342G/I384M): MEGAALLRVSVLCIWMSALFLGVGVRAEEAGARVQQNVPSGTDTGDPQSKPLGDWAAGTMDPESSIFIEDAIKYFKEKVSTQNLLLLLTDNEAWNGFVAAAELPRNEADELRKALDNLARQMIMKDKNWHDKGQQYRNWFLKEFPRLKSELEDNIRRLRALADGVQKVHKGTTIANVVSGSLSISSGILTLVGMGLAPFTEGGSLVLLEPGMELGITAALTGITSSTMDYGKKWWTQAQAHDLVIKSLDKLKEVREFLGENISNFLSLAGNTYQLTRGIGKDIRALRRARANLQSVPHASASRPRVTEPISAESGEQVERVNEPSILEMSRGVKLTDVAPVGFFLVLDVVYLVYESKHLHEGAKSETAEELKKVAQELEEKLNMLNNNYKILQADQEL

[2] = target: T2, APOL1 G1 (Homo sapiens, UniProt O14791, I384M/S342G); test: Trypanosoma brucei brucei Lysis Assay Using APOL1 Recombinant Protein (AlamarBlue viability readout); assay type: cell-based; settings: for Emax: read-out: Trypanosome Assay Max Activity (%)
T2 sequence (O14791 28-398 S342G/I384M): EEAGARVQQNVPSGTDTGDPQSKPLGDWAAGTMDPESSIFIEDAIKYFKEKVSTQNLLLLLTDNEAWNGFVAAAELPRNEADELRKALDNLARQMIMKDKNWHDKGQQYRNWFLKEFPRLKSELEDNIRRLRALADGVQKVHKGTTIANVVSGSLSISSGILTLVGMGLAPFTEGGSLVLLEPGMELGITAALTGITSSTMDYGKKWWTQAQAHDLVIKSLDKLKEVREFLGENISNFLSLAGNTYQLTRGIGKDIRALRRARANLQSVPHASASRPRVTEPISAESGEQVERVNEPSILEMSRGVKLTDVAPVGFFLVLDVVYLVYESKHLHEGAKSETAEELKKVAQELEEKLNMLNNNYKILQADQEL
Text: Trypanosoma brucei brucei is a blood stream parasite to which human, gorillas, and baboons are immune due to the presence of the APOL1 protein in their HDL particles. The protein is uptaken by the parasite via the TbHpHb receptor located in its flagellar pocket and is bonded by the Hpr protein contained in the HDL particles which triggers the receptor endocytosis by the parasite.
Following endocytosis, the formed vesicle containing the HDL particle matures from early to late endosome, and subsequently to lysosome. The concomitant pH change in the lumen of the vesicle triggers the insertion of the APOL1 protein into the membrane of the late endosome/lysosome and hereby triggers lysosomal membrane permeabilization and as a further downstream event, trypanosome lysis. Trypanosoma brucei brucei is sensitive to lysis by all three APOL1 variants (G0, G1, and G2).
The Trypanosoma brucei brucei lysis assay is a lysis assay of the parasite using recombinant APOL1 protein variant followed by a fluorescent detection method of viability by the addition of AlamarBlue reagent to the assay well, a general metabolic redox indicator (AlamarBlue assay).
Briefly, the AlamarBlue active compound, resazurin, a blue, water soluble, non-toxic and cell permeable molecule, which can be followed by absorbance, is reduced by various metabolic pathways into resorufin, a red compound which can be followed by either absorbance or fluorescence. The assay allows the calculation of the percent viability (percent of living Trypanosomes remaining in each well) at the end of a lysis relative to the untreated condition by interpolation of fluorescent values (FLU) on a standard curve with a known amount of seeded trypanosome/well.
Trypanosoma brucei brucei (ATCC, Cat. No. PRA-382)
• Lister 427 VSG 221 bloodstream form.
Equipment • E1-Clip Tip pipette 12 channel adjustable 2-125 μL, Cat. No. 4672070BT • ThermoFisher MultiDrop 384, Cat. No. 5840300 • Multidrop • Agilent Bravo, Cat. No. G5409A • Bravo • SpectraMax M5 Assay Ready Plates (ARPs) • ARPs comes in two formats: • […] final top concentration with a 2.5 fold dilution down. • […] final top concentration with a 3 fold dilution down. • Both have a 10 point Dose response. • 0.1% DMSO final in the Black Assay Plate. • Compounds are diluted 1000 fold in the Black Assay Plate. • Each plate is designed for 14 compounds in duplicate. • In the final Black Assay Plate: • Column 1: Media only (no APOL1) (100% viable) • Column 2-23: 0.05 μg/mL APOL1 (˜EC90) (10% viable with APOL1) • Column 24: 0.1 μg/mL APOL1 (EC100) (Approx. […] Step 2, Day 4 • Centrifuge at 800×g for 5 minutes at room temperature. • Resuspend in 1 mL media. • Make a 1:25 fold dilution (10 μL/240 μL media). • Count on a hemocytometer (after adding parasites). • Let sit for 1-2 minutes for the parasites to settle. • Count should be approximately 100 viable motile parasites/16 grid or approximately 25×10^6 parasites/flask. • Passage the parasites by adding 1×10^6 parasites/T75 flask in 20 mL media. • Passage the parasites by adding 2.33×10^6 parasites/T175 flask in 46.6 mL media. • For every T75 flask should make enough for approximately 1.5×384 well assay plates. • For every T175 flask should make enough for approximately 3.8×384 well assay plates. Step 3, Day 6 • Centrifuge at 800×g for 5 minutes. • Resuspend in 3 mL assay media (No phenol red, no FBS) per 75 starting flask. • Resuspend in 7 mL assay media (No phenol red, no FBS) per 175 flask • Make a 1:25 fold dilution. • Count by hemocytometer. • Every T75 flask set up should have approximately 75×10^6 parasites/flask (verify doubling time=8.7 hours±1 hour). • Every T175 flask set up should have approximately 175×10^6 parasites/flask (verify doubling time=8.7 hours±1 hour). • Require 46×10^6 parasites per 384 well plate (at 120,000 parasites per well). […]

[3] = Trypanosome Assay, IP50 = IC50 for cell proliferation, read-out: Trypanosome Assay IP50

CCC(O)Cn1cc([C@@H]2C[C@]3(C[C@H](C)N2)OCCc2cc(Cl)sc23)nn1 (mixture of isomers) [Compound 111]
Multi-Tox Assay Max Activity (%) [1]: 99.3%
IC50 [1]: < 50 nM
IC50 [2, 3]: 50 to 500 nM
Emax ([2]; Trypanosome Assay): 98.5%

Cc1n[nH]c2ncc([C@@H]3C[C@]4(C[C@H](C)N3)OCCc3cc(Cl)sc34)cc12 (racemic) [Compound 48]
Multi-Tox Assay Max Activity (%) [1]: 99.0%
IC50 [1]: < 50 nM
IC50 [2, 3]: < 50 nM
Emax ([2]; Trypanosome Assay): 102%

C[C@H]1C[C@@]2(C[C@@H](c3ccnn3C)N1)OCCc1cc(Cl)sc12 (racemic) [Compound 152]
Multi-Tox Assay Max Activity (%) [1]: 98.0%
IC50 [1]: 50 to 500 nM
IC50 [2, 3]: > 500 nM
Emax ([2]; Trypanosome Assay): 92.7%

Cn1cc(C2CC3(CC(C4CCC4)N2)OCCc2cc(Cl)sc23)nn1 (centres unmarked) [Compound 189]
IC50 [1]: 50 to 500 nM
IC50 [2, 3]: > 500 nM
Emax ([2]; Trypanosome Assay): 87.5%

C[C@H]1C[C@@]2(C[C@@H](c3cn(C)nn3)N1)OCCc1cc(C(F)(F)F)sc12 [Compound 2, (2′S,6′S,7S)-2′-methyl-6′-(1-methyltriazol-4-yl)-2-(trifluoromethyl)spiro[4,5-dihydrothieno[2,3-c]pyran-7,4′-piperidine]]
IC50 [1]: < 50 nM
IC50 [2, 3]: < 50 nM
Emax ([2]; Trypanosome Assay): 117%

C[C@H]1C[C@@]2(C[C@@H](c3ccnc(N(C)C)n3)N1)OCCc1cc(Cl)sc12 (racemic) [Compound 127]
Multi-Tox Assay Max Activity (%) [1]: 99.3%
IC50 [1]: 50 to 500 nM
IC50 [2, 3]: 50 to 500 nM
Emax ([2]; Trypanosome Assay): 107%

CCc1cc2c(s1)CCOC21C[C@@H](c2cn(C)nn2)N[C@@H](C)C1 (stereo in doubt) [Compound 4]
IC50 [1]: < 50 nM
IC50 [2, 3]: < 50 nM
Emax ([2]; Trypanosome Assay): 118%

C[C@H]1CC2(C[C@@H](c3cn(C)nn3)N1)OCC(C)(C)c1sc(C(F)(F)F)cc12 (stereo in doubt) [Compound 16]
Multi-Tox Assay Max Activity (%) [1]: 100.0%
IC50 [1]: < 50 nM
IC50 [2, 3]: 50 to 500 nM
Emax ([2]; Trypanosome Assay): 99.5%

C[C@H]1C[C@@]2(C[C@@H](c3ccc4c(c3)NC(=O)CO4)N1)OCCc1cc(Cl)sc12 (racemic) [Compound 54]
IC90 [1]: < 50 nM
Multi-Tox Assay Max Activity (%) [1]: 100.0%
IC50 [1]: < 50 nM
IC50 [2, 3]: < 50 nM
Emax ([2]; Trypanosome Assay): 102%

C[C@H]1C[C@@]2(C[C@@H](c3ccc(S(N)(=O)=O)cc3F)N1)OCCc1cc(Cl)sc12 (racemic) [Compound 78]
IC50 [1]: < 50 nM
IC50 [2, 3]: < 50 nM
Emax ([2]; Trypanosome Assay): 102%

Cc1cc([C@@H]2C[C@]3(C[C@H](C)N2)OCCc2cc(Cl)sc23)ccc1O (racemic) [Compound 108]
Multi-Tox Assay Max Activity (%) [1]: 99.0%
IC50 [1]: < 50 nM
IC50 [2, 3]: < 50 nM
Emax ([2]; Trypanosome Assay): 94.5%

C[C@H]1C[C@@]2(C[C@@H](c3cnc(-c4cnn(C)c4)nc3)N1)OCCc1cc(Cl)sc12 (stereo in doubt) [Compound 61]
IC50 [1]: < 50 nM
IC50 [2, 3]: < 50 nM
Emax ([2]; Trypanosome Assay): 105%

C[C@@H]1CC2(C[C@@H](c3cn(C)nn3)N1)OCCc1cc(Cl)sc12 (single isomer, unassigned) [Compound 7]
IC90 [1]: 50 to 500 nM
IC50 [1]: 50 to 500 nM
IC50 [2, 3]: > 500 nM
Emax ([2]; Trypanosome Assay): 92%

COc1cccc(C2CC3(CC(C)N2)OCCc2cc(Cl)sc23)n1 (mixture of isomers) [Compound 135]
IC50 [1]: 50 to 500 nM
IC50 [2, 3]: 50 to 500 nM
Emax ([2]; Trypanosome Assay): 94%

CC1CC2(CC(c3cnn(-c4cccnc4)c3)N1)OCCc1cc(Cl)sc12 (centres unmarked) [Compound 40]
Multi-Tox Assay Max Activity (%) [1]: 100.0%
IC50 [1]: < 50 nM
IC50 [2, 3]: < 50 nM
Emax ([2]; Trypanosome Assay): 118%

COc1ccc(C2CC3(CC(C)N2)OCCc2cc(Cl)sc23)nc1 (centres unmarked) [Compound 34]
Multi-Tox Assay Max Activity (%) [1]: 99.0%
IC50 [1]: < 50 nM
IC50 [2, 3]: < 50 nM
Emax ([2]; Trypanosome Assay): 115%

C[C@H]1C[C@@]2(C[C@@H](c3ccc(C(F)(F)F)nc3)N1)OCCc1cc(Cl)sc12 (racemic) [Compound 123]
Multi-Tox Assay Max Activity (%) [1]: 100.0%
IC50 [1]: < 50 nM
IC50 [2, 3]: < 50 nM
Emax ([2]; Trypanosome Assay): 104%

CC1CC2(CC(c3ccncc3)N1)OCCc1cc(Cl)sc12 (centres unmarked) [Compound 30]
Multi-Tox Assay Max Activity (%) [1]: 99.0%
IC50 [1]: < 50 nM
IC50 [2]: < 50 nM
Emax [2]: 124%

C[C@H]1C[C@@]2(C[C@@H](c3cnc(N)nc3)N1)OCCc1cc(Cl)sc12 (racemic) [Compound 57]
Multi-Tox Assay Max Activity (%) [1]: 99.7%
IC50 [1]: < 50 nM
IC50 [2, 3]: < 50 nM
Emax ([2]; Trypanosome Assay): 105%

C[C@H]1C[C@@]2(C[C@@H](c3cn(C)nn3)N1)OCC(F)(F)c1cc(Cl)sc12 [Compound 183, (2′S,6′S,7S)-2-chloro-4,4-difluoro-2′-methyl-6′-(1-methyltriazol-4-yl)spiro[5H-thieno[2,3-c]pyran-7,4′-piperidine]]
IC50 [1]: < 50 nM
IC50 [2, 3]: 50 to 500 nM
Emax ([2]; Trypanosome Assay): 106%

CC(C)C1CC2(CC(c3cn(C)nn3)N1)OCCc1cc(Cl)sc12 (centres unmarked) [Compound 188]
IC90 [1]: 50 to 500 nM
Multi-Tox Assay Max Activity (%) [1]: 99.0%
IC50 [1]: 50 to 500 nM
IC50 [2, 3]: 50 to 500 nM
Emax ([2]; Trypanosome Assay): 108%

CCOc1ccc([C@@H]2C[C@]3(C[C@H](C)N2)OCCc2cc(Cl)sc23)nc1 (racemic) [Compound 69]
IC50 [1]: < 50 nM
IC50 [2, 3]: < 50 nM
Emax ([2]; Trypanosome Assay): 110%

CC(C)c1c[nH]c([C@@H]2C[C@]3(C[C@H](C)N2)OCCc2cc(Cl)sc23)n1 (racemic) [Compound 162]
IC50 [1]: > 500 nM
IC50 [2, 3]: > 500 nM
Emax ([2]; Trypanosome Assay): 81%

CC1CC2(CC(c3cnn(CCS(C)(=O)=O)c3)N1)OCCc1sc(C(F)(F)F)cc12 (centres unmarked) [Compound 9]
Multi-Tox Assay Max Activity (%) [1]: 100.0%
IC50 [1]: < 50 nM
IC50 [2, 3]: 50 to 500 nM
Emax ([2]; Trypanosome Assay): 108%

C[C@H]1C[C@@]2(C[C@@H](c3cccnn3)N1)OCCc1cc(Cl)sc12 (racemic) [Compound 92]
IC50 [1]: < 50 nM
IC50 [2, 3]: < 50 nM
Emax ([2]; Trypanosome Assay): 103%

C[C@@H]1CC2(C[C@H](C)N1)OCCc1cc(C(F)(F)F)sc12 (single isomer, unassigned) [Compound 207]
IC50 [1]: < 50 nM
IC50 [2, 3]: < 50 nM
Emax ([2]; Trypanosome Assay): 108%

Cc1cccnc1[C@@H]1C[C@]2(C[C@H](C)N1)OCCc1cc(Cl)sc12 (racemic) [Compound 167]
IC50 [1]: > 500 nM
IC50 [2, 3]: > 500 nM
Emax ([2]; Trypanosome Assay): 73%
